Measurements from article PMC9291665, “Discovery and SAR analysis of 5-chloro-4-((substituted phenyl)amino)pyrimidine bearing histone deacetylase inhibitors” (Journal of Enzyme Inhibition and Medicinal Chemistry, 2022).

Key:
[1] = test system: Hela nucleus extract containing a mixture of HDAC isoforms; experiment: HDAC enzyme inhibitory screening against Hela nucleus extract; assay type: biochemical; details: at concentration of 1.0 µM, mean of three experiments
Procedure: The synthesised molecules were firstly screened against Hela nucleus extract containing a mixture of HDAC isoforms.
(§1) All HDAC enzymes were purchased from BPS Bioscience. In short, 60 µL of recombinant HDAC enzyme solution was mixed with various concentrations of test compound (40 µL), and then incubated at 37 °C for 30 minutes. The reaction was terminated by adding 100 µL of imaging agent containing trypsin and trichostatin A (TSA). After standing for 20 min, the fluorescence intensity was measured at the excitation and emission wavelengths of 360 and 460 nm with a microplate reader. The inhibition rate was calculated from the fluorescence intensity readings of the test wells relative to the control wells, and the IC50 curve and value were determined by GraphPad Prism 6.0 software.

K562 cells [2] = experiment: In vitro antiproliferative assay (CCK-8), K562; assay type: cell-based; details: Homo sapiens
Procedure: (§2) The proliferation of cancer cells was tested by CCK-8 assay. Briefly, cells were seeded in 96-well plate with about 5 × 10^3 cells in each well. The cells were treated with tested compounds after 24 h of incubation. CCK-8 reagent ([…]) was added to each well after 72 h of incubation, and cells were incubated at 37 °C for 4 h. The light absorbance at 450 nm was measured by using an Opsys microplate reader (Dynex Technologies, Chantilly, VA, USA).

HDAC1 = molecular target: T1, HDAC1 (Homo sapiens, UniProt Q13547); experiment: HDAC enzyme inhibitory selectivity test, HDAC1; assay type: biochemical
T1 construct: purchased BPS Bioscience
T1 sequence (Q13547 whole entry): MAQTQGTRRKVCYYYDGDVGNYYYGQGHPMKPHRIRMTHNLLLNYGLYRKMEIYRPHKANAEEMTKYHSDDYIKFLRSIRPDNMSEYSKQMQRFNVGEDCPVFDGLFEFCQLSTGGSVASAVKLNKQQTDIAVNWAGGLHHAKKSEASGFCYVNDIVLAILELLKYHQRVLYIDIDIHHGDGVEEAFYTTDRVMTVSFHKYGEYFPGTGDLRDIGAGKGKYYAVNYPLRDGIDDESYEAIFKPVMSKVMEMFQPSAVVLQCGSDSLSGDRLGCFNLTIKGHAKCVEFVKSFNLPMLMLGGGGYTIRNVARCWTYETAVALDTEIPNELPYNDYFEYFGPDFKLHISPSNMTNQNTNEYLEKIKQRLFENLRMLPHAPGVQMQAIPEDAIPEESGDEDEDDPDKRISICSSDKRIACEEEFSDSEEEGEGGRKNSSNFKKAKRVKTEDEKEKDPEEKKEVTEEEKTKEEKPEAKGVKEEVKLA
Procedure: (§3) Therefore, molecule L20 was evaluated in the HDAC enzyme inhibitory selectivity test against HDAC1, 2, 3 and 6 (Table 2).
as §1

HDAC2 = molecular target: T2, HDAC2 (Homo sapiens, UniProt Q92769); experiment: HDAC enzyme inhibitory selectivity test, HDAC2; assay type: biochemical
T2 construct: purchased BPS Bioscience
T2 sequence (Q92769 whole entry): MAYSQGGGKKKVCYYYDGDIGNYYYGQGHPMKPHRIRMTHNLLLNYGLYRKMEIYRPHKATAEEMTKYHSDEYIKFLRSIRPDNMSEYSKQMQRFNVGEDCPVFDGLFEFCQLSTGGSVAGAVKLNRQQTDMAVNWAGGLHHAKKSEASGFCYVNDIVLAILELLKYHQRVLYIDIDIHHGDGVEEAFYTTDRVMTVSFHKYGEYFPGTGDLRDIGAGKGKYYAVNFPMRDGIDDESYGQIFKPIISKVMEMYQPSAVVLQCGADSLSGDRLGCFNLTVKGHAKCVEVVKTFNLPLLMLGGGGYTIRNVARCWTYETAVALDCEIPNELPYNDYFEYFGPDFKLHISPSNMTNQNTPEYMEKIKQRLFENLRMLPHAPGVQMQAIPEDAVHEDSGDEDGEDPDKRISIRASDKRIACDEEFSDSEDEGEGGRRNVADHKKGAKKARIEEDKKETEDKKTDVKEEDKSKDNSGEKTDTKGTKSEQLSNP
Procedure: as §3, §1

HDAC3 = molecular target: T3, HDAC3 (Homo sapiens, UniProt O15379); experiment: HDAC enzyme inhibitory selectivity test, HDAC3; assay type: biochemical
T3 construct: purchased BPS Bioscience
T3 sequence (O15379 whole entry): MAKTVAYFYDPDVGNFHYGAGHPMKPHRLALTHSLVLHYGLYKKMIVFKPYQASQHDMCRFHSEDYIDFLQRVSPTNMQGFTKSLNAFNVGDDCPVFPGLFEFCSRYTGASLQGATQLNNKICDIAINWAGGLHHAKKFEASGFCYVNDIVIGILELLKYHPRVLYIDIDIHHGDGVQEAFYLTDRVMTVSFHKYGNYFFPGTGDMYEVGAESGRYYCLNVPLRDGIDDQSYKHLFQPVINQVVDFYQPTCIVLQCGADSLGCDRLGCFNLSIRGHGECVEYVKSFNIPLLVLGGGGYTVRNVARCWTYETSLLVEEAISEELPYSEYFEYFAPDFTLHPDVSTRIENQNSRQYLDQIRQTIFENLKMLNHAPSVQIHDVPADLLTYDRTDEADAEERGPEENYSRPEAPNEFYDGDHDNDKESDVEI
T3 sequence (Q9Y618 395-489 partner limits assumed): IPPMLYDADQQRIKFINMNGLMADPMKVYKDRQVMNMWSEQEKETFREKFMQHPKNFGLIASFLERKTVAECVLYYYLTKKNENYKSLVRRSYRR
Procedure: as §3, §1

HDAC6 = molecular target: T4, HDAC6 (Homo sapiens, UniProt Q9UBN7); experiment: HDAC enzyme inhibitory selectivity test, HDAC6; assay type: biochemical; details: mean of three experiments
T4 construct: purchased BPS Bioscience
T4 sequence (Q9UBN7 1-1215): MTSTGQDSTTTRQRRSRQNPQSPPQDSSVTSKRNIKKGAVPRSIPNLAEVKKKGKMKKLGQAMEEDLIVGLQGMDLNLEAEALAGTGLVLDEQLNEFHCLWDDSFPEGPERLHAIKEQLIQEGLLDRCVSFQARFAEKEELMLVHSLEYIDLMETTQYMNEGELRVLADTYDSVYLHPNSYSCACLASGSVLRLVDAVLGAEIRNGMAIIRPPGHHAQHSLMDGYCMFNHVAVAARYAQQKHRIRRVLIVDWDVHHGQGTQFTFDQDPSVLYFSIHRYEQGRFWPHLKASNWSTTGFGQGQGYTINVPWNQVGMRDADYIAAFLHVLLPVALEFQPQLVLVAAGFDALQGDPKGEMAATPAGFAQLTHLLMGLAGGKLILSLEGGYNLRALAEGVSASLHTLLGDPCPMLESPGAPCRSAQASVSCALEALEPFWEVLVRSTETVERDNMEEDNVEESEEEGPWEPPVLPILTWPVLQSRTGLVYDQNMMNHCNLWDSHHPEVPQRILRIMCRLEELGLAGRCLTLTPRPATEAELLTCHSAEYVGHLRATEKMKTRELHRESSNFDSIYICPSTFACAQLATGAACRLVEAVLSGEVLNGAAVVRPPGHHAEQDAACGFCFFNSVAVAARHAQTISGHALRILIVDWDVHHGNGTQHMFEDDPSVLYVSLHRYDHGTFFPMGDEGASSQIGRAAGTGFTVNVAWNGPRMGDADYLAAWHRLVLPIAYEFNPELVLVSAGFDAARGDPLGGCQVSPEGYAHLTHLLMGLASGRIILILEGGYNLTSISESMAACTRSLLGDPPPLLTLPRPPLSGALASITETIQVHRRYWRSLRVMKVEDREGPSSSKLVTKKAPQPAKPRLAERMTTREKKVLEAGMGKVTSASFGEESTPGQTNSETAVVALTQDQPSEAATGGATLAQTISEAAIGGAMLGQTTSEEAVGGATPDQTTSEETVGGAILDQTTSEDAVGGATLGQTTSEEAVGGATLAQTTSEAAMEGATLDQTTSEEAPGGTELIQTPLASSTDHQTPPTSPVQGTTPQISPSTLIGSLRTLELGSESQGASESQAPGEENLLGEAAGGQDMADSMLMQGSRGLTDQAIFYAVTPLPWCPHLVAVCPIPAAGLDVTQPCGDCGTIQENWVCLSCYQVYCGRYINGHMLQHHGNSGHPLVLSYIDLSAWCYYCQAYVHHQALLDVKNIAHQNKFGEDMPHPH
Procedure: as §3, §1

U266 = experiment: In vitro antiproliferative assay (CCK-8), U266; assay type: cell-based; details: Homo sapiens, U-266, CCK-8, 72 h
Procedure: as §2

U937 = experiment: In vitro antiproliferative assay (CCK-8), U937; assay type: cell-based; details: Homo sapiens, U-937, CCK-8, 72 h
Procedure: as §2

C6 = experiment: In vitro antiproliferative assay (CCK-8), C6; assay type: cell-based; details: Rattus norvegicus, CCK-8, 72 h
Procedure: as §2

Fadu = experiment: In vitro antiproliferative assay (CCK-8), Fadu; assay type: cell-based; details: Homo sapiens, CCK-8, 72 h
Procedure: as §2

MDA-MB-231 = experiment: In vitro antiproliferative assay (CCK-8), MDA-MB-231; assay type: cell-based; details: Homo sapiens, CCK-8, 72 h
Procedure: (§4) Compound L20 with good performances in both enzyme and K562 cell inhibitory tests were selected for further antiproliferative assay against various cell lines. K562, U266, U937, C6, Fadu, MDA-MB-231, MDA-MB-468, A549, A2780 and HepG2 cell lines were used in the cell-based anticancer evaluation of L20.
as §2, with “USA). Results are illustrated as percent of cell viability normalised to DMSO-treated control cells.” for “USA).”

MDA-MB-468 = experiment: In vitro antiproliferative assay (CCK-8), MDA-MB-468; assay type: cell-based; details: Homo sapiens, CCK-8, 72 h
Procedure: as §4
as §2, with “USA). Results are illustrated as percent of cell viability normalised to DMSO-treated control cells.” for “USA).”

A549 = experiment: In vitro antiproliferative assay (CCK-8), A549; assay type: cell-based; details: Homo sapiens, CCK-8, 72 h
Procedure: as §2

A2780 = experiment: In vitro antiproliferative assay (CCK-8), A2780; assay type: cell-based; details: Homo sapiens, CCK-8, 72 h
Procedure: as §2

HepG2 = experiment: In vitro antiproliferative assay (CCK-8), HepG2; assay type: cell-based; details: Homo sapiens, CCK-8, 72 h
Procedure: as §2

K562 cells [3] = experiment: Cell cycle analysis by flow cytometry (PI); details: 24 h, first peak in Figure 5
Procedure: After treatment, cells were collected and fixed with 70% pre-cold ethanol in PBS and stored at −20 °C overnight. Then washed the cells with PBS twice, and incubated with 100 µg/mL RNase I (Solarbio, China) at 37 °C for 1 h, stained with propidium iodide (PI, 10 µg/mL, Solarbio, China) for 30 min avoid light at room temperature. Finally, DNA content was measured by flow cytometry (FACSAriaIII, Becton Dickinson, USA). The data were analysed and fitted by ModFit software.

K562 cells [4] = experiment: Cell apoptosis analysis by flow cytometry (Annexin V-BV421 / 7-AAD); details: 24 h, control 1.14%
Procedure: Cells were incubated with Annexin V-BV421 (Becton Dickinson, USA) and 7-AAD (Becton Dickinson, USA) double labelling for 30 min in the dark at room temperature and measured by flow cytometry (FACSAriaIII, Becton Dickinson, USA). The data was analysed using Flowjo-V10 software.

HDACs percentage inhibitory rate [1]: 72.52 ± 1.26%
IC50 (K562 cells [2]; CCK-8, 72 h): 0.34 ± 0.02 µM
selectivity index HDAC1 compared with HDAC6 (HDAC1; HDAC1 vs HDAC6): > 1462
IC50 (HDAC1; mean of three experiments): 0.684 ± 0.016 µM
selectivity index HDAC2 compared with HDAC6 (HDAC2; HDAC2 vs HDAC6): > 392
IC50 (HDAC2; mean of three experiments): 2.55 ± 0.079 µM
selectivity index HDAC3 compared with HDAC6 (HDAC3; HDAC3 vs HDAC6): > 4608
IC50 (HDAC3; mean of three experiments): 0.217 ± 0.008 µM
IC50 (HDAC6): > 1000 µM
IC50 (U266): 0.28 ± 0.01 µM
IC50 (U937): 0.76 ± 0.03 µM
IC50 (MDA-MB-231): 1.63 ± 0.06 µM
IC50 (MDA-MB-468): 2.23 ± 0.09 µM
IC50 (A549): 1.06 ± 0.03 µM
IC50 (A2780): 0.97 ± 0.02 µM
IC50 (HepG2): 3.17 ± 0.15 µM
Compound: COc1cc(Nc2nc(N3CCN(c4ncc(C(=O)NO)cn4)CC3)ncc2Cl)cc(OC)c1 [Compound L20, 2–(4-(5-chloro-4-((3,5-dimethoxyphenyl)amino)pyrimidin-2-yl)piperazin-1-yl)-N-hydroxypyrimidine-5-carboxamide]
inhibition at 1 µM (K562 cells [2]; at concentration of 1.0 µM, mean of three experiments, read-out: K562 percentage inhibitory rate): 74.2 ± 1.18%
IC50 (C6): 1.98 ± 0.1 µM
IC50 (Fadu): 1.42 ± 0.05 µM
G0/G1 phase ratio of K562 cells (K562 cells [3]; 1 µM): 19.34%
G0/G1 phase ratio of K562 cells (K562 cells [3]; 2 µM): 44.85%
apoptotic rate of K562 cells (K562 cells [4]; 1 µM): 2.51%
apoptotic rate of K562 cells (K562 cells [4]; 2 µM): 11.87%
apoptotic rate of K562 cells (K562 cells [4]; 4 µM): 17.60%
